Tests used:
[1] = test system: Hairless mice (HRS/J strain); test: Repair of UV-B-caused skin damage in the hairless mouse; assay type: in vivo; details: three times a week, 10 weeks, Luna staining of elastin, total surface per 20 microscopic field
Excerpt: Repair of UV-B-caused Skin Damage in the Hairless Mouse Hairless mice (HRS/J strain, Jackson Labs, aged 5-7 weeks at the beginning of the experiment) were irradiated three times a week with an arrangement of 8 Westinghouse irradiation lamps (FS40) which were placed about 20 cm above the animals. The radiation dose was controlled by a commercial phototherapeutic control device. The UV-B dose was chosen such that the dosage scarcely exceeded 0.06 J/cm^2, caused a minimal erythema, but no burning or scarring. After a total dose of about 3.5 J/cm^2 there resulted a significant elastosis which was evident from a histological report and which was confirmed by measuring the elastin using a radioimmunoassay for desmosin in the total skin. The desmosin content increased by two- to three-fold after 3.5 J/cm^2 UV-B irradiation. In order to make good the skin damage, the UV irradiation was interrupted and groups of animals were treated three times a week with different doses of compounds of formula I dissolved in acetone. These solutions were prepared freshly each week such that the dosage to be administered was present in […] of acetone and were applied topically to an area of about 10 cm^2 on the backs of the animals. A controlled group was treated only with acetone. After treatment for 10 weeks the animals were killed, skin preparations were prepared and the extent of the recovery was measured quantitatively by Luna staining of the elastin. In this experimental model the skin recovery is defined as the appearance of a normal dermis which extends from the epidermis to the layer of compressed elastin. The extent of the recovery was given by the width of this zone. The area of the zone on a standard length of the histological section was measured and the result was expressed as the total surface in mm^2 per 20 microscopic field.

| SMILES | melting point | also measured |
| --- | --- | --- |
| CCCCCCCCc1cc2c(cc1/C=C/c1ccc(C(=O)O)cc1)C(C)(C)CCC2(C)C [Compound E, p-[(E)-2-(3-Octyl-5,6,7,8-tetrahydro-5,5,8,8-tetramethyl-2-naphthyl)vinyl]benzoic Acid] | – | Recovery Zone ([1]; 0.5 μg topically in acetone): 7.48 ± 1.7 mm^2 • 10^−3; Recovery Zone ([1]; 2 μg topically in acetone): 4.70 ± 2.0 mm^2 • 10^−3; Recovery Zone ([1]; 10 μg topically in acetone): 22.2 ± 8.3 mm^2 • 10^−3 |
| CCCCCCc1cc2c(cc1/C=C/C=C/C(C)=C/C(=O)O)C(C)(C)CCC2(C)C [Compound C, (all E)-7-(3-Hexyl-5,5,8,8-tetramethyl-5,6,7,8-tetrahydro-naphthalen-2-yl)-3-methyl-hepta-2,4,6-trienoic Acid] | – | Recovery Zone ([1]; 2 μg topically in acetone): 32.8 ± 6.72 mm^2 • 10^−3; Recovery Zone ([1]; 10 μg topically in acetone): 59.5 ± 6.71 mm^2 • 10^−3 |
| CCCCCC(=O)c1cc2c(cc1/C=C/c1ccc(C(=O)O)cc1)C(C)(C)CCC2(C)C [Example 16, (E)-4-[2-(3-hexanoyl-5,5,8,8-tetramethyl-5,6,7,8-tetrahydro-naphthalen-2-yl)vinyl]benzoic acid] | 118 to 119 °C | – |
| CCC#CCOc1cc2c(cc1/C=C/c1ccc(C(=O)O)cc1)C(C)(C)CCC2(C)C [Example 20, (E)-4-[2-(3-pent-2-ynyloxy-5,5,8,8-tetramethyl-5,6,7,8-tetrahydro-naphthalen-2-yl)-vinyl]-benzoic acid] | 144 to 145 °C | – |
| CCCCc1cc2c(cc1/C=C/c1ccc(C(=O)O)cc1)C(C)(C)CCCC2 [Example 13 (fourth compound), (E)-4-[2-(3-butyl-9,9-dimethyl-6,7,8,9-tetrahydro-5H-benzocyclohepten-2-yl)vinyl]benzoic acid] | 81 to 83 °C | – |
| CCCCCOc1cc2c(cc1/C=C/c1ccc(C(=O)O)cc1)C(C)(C)CCC2(C)C [Example 8, (E)-4-[2-(5,5,8,8-Tetramethyl-3-pentoxy-5,6,7,8-tetrahydro-naphthalen-2-yl)vinyl]benzoic acid] | 148 to 149 °C | – |
| C/C=C/COc1cc2c(cc1/C=C/c1ccc(C(=O)O)cc1)C(C)(C)CCC2(C)C [Example 22 (but-2-enyloxy), 4-[(E)-2-((E)-3-but-2-enyloxy-5,5,8,8-tetramethyl-5,6,7,8-tetrahydro-naphthalen-2-yl)-vinyl]-benzoic acid] | 178 to 180 °C | – |
| CCCCCCCCc1cc2c(cc1/C=C/c1ccc(C(=O)O)cc1)CCC(C)(C)CC2C (racemic) [Example 12, Rac-(E)-4-[2-(5,7,7-trimethyl-3-octyl-6,7,8,9-tetrahydro-5H-benzocyclohepten-2-yl)vinyl]benzoic acid] | 182 to 183 °C | – |
| CCCCOc1cc2c(cc1/C=C/C=C/C(C)=C/C(=O)O)[C@]1(C)CCC[C@@]2(C)[C@@H]1O (racemic) [Example 19, (2E,4E,6E)-(5RS,9SR,10RS)-7-(3-butoxy-10-hydroxy-5,9-dimethyl-6,7,8,9-tetrahydro-5,9-methano-5H-benzocyclohepten-2-yl)-3-methyl-hepta-2,4,6-trienoic acid] | 176 to 178 °C | – |
| CCCCCc1cc2c(cc1/C=C/c1ccc(C(=O)O)cc1)C(C)(C)CCC2(C)C [Example 2, (E)-4-[2-(3-Pentyl-5,5,8,8-tetramethyl-5,6,7,8-tetrahydro-naphthalen-2-yl)vinyl]benzoic acid] | 173 to 174 °C | – |
| CCCCCc1cc2c(cc1C#C/C=C/C(C)=C/C(=O)O)C(C)(C)CCC2(C)C [Example 17 (2E,4E), (2E,4E)-3-methyl-7-(5,5,8,8-tetramethyl-3-pentyl-5,6,7,8-tetrahydro-naphthalen-2-yl)-hepta-2,4-dien-6-ynoic acid] | 155 to 156 °C | – |
| CCCCCCC1C2=C(CC1/C=C/c1ccc(C(=O)O)cc1)C(C)(C)CC=C2 (stereo not shown) [Example 13 (second compound), (E)-4-[2-(3-Hexyl-7,7-dimethyl-indan-2-yl)vinyl]benzoic acid] | 149 to 150 °C | – |
| CCCCc1cc2c(cc1/C=C/c1ccc(C(=O)O)cc1)C(C)(C)CCC2(C)C [Compound B, 4-[(E)-2-(3-Butyl-5,5,8,8-tetramethyl-5,6,7,8-tetrahydro-naphth-2-yl)vinyl]benzoic Acid] | – | Recovery Zone ([1]; 0.5 μg topically in acetone): 15.6 ± 2.74 mm^2 • 10^−3; Recovery Zone ([1]; 2 μg topically in acetone): 20.5 ± 7.17 mm^2 • 10^−3 |
| CCCCCCc1cc2c(cc1/C=C/c1ccc(C(=O)O)cc1)CCCCC2(C)C [Example 13 (third compound), (E)-4-[2-(3-hexyl-5,5-dimethyl-6,7,8,9-tetrahydro-5H-benzocyclohepten-2-yl)vinyl]benzoic acid] | 133 to 134 °C | – |
| CCCCCc1cc2c(cc1/C=C/C=C/C(C)=C\C(=O)O)C(C)(C)CCC2(C)C [Example 6, (2Z,4E,6E)-7-(3-Pentyl-5,5,8,8-tetramethyl-5,6,7,8-tetrahydro-naphthalen-2-yl)-3-methyl-hepta-2,4,6-trienoic acid] | 170 to 174 °C | – |
| CCCCCCCOc1cc2c(cc1/C=C/c1ccc(C(=O)O)cc1)[C@]1(C)CCC[C@@]2(C)[C@@H]1O (racemic) [Example 14, (E)-4-[2-[(5RS,9SR,10RS)-3-heptyloxy-10-hydroxy-5,9-dimethyl-6,7,8,9-tetrahydro-5,9-methano-5H-benzocyclohepten-2-yl]vinyl]benzoic acid] | 89 to 90 °C | – |
| CCCCc1cc2c(cc1/C=C/c1ccc(C(=O)O)cc1)CCCCC2(C)C [Example 13, (E)-4-[2-(3-Butyl-5,5-dimethyl-6,7,8,9-tetrahydro-5H-benzocyclohepten-2-yl)vinyl]benzoic acid] | 184 to 186 °C | – |
| CCCCCc1cc2c(cc1/C=C/C=C/C(C)=C/C(=O)O)C(C)(C)CCC2(C)C [Example 5, (2E,4E,6E)-7-(3-Pentyl-5,5,8,8-tetramethyl-5,6,7,8-tetrahydro-naphthalen-2-yl)-3-methyl-hepta-2,4,6-trienoic acid] | 164 to 166 °C | – |
| CCCCCCc1cc2c(cc1/C=C/c1ccc(C(=O)O)cc1)C(C)(C)CCC2(C)C [Compound A, p-[(E)-2-(3-Hexyl-5,6,7,8-tetrahydro-5,5,8,8-tetramethyl-2-naphthyl)vinyl]benzoic Acid] | 134 to 136 °C | Recovery Zone ([1]; 0.05 μg topically in acetone): 9.8 ± 2.8 mm^2 • 10^−3; Recovery Zone ([1]; 2 μg topically in acetone): 27.2 ± 2.6 mm^2 • 10^−3; Recovery Zone ([1]; 10 μg topically in acetone): 35.9 ± 7.5 mm^2 • 10^−3 |
| C=CCOc1cc2c(cc1/C=C/c1ccc(C(=O)O)cc1)C(C)(C)CCC2(C)C [Example 22 (allyloxy), (E)-4-[2-(3-allyloxy-5,5,8,8-tetramethyl-5,6,7,8-tetrahydro-naphthalen-2-yl)-vinyl]-benzoic acid] | 191 to 192 °C | – |
| CCC#CCOc1cc2c(cc1/C=C/C=C/C(C)=C/C(=O)O)C(C)(C)CCC2(C)C [Example 21, (2E,4E,6E)-3-methyl-7-(3-pent-2-ynyloxy-5,5,8,8-tetramethyl-5,6,7,8-tetrahydro-naphthalen-2-yl)-hepta-2,4,6-trienoic acid] | 208 to 209 °C | – |
| CCCCCCCCc1cc2c(cc1/C=C/c1ccc(C(=O)O)cc1)CCC(C)(C)CC2 [Example 11, (E)-4-[2-(7,7-dimethyl-3-octyl-6,7,8,9-tetrahydro-5H-benzocyclohepten-2-yl)vinyl]benzoic acid] | 179.5 to 180.5 °C | – |
| CCc1cc2c(cc1/C=C/c1ccc(C(=O)O)cc1)C(C)(C)CCC2(C)C [Compound D, p-[(E)-2-(3-Ethyl-5,6,7,8-tetrahydro-5,5,8,8-tetramethyl-2-naphthyl)vinyl]benzoic Acid] | – | Recovery Zone ([1]; 0.5 μg topically in acetone): 15.5 ± 4.9 mm^2 • 10^−3; Recovery Zone ([1]; 2 μg topically in acetone): 19.1 ± 4.9 mm^2 • 10^−3; Recovery Zone ([1]; 10 μg topically in acetone): 46.5 ± 6.9 mm^2 • 10^−3 |
| C=CCOc1cc2c(cc1/C=C/C=C/C(C)=C/C(=O)O)C(C)(C)CCC2(C)C [Example 23 (allyloxy), (2E,4E,6E)-7-(3-allyloxy-5,5,8,8-tetramethyl-5,6,7,8-tetrahydro-naphthalen-2-yl)-3-methyl-hepta-2,4,6-trienoic acid] | 193 to 194 °C | – |
| CCCCCOc1cc2c(cc1/C=C/C=C/C(C)=C/C(=O)O)C(C)(C)CCC2(C)C [Example 10 (2E isomer), (2E,4E,6E)-3-methyl-7-(5,5,8,8-tetramethyl-3-pentoxy-5,6,7,8-tetrahydro-naphthalen-2-yl)-hepta-2,4,6-trienoic acid] | 162 to 163 °C | – |

— patent US6610877B1, “Aromatic carboxylic acid derivatives” (Hoffman-La Roche Inc., priority 1993, dated 2003)
